Here are results for 36 compounds from patent US20050009840A1 (SUGEN, INC., priority 2003, published 2005).

The target of the first assay is T1, Met kinase domain (GST fusion protein) (Homo sapiens, UniProt P08581).
T1 construct: Purified GST fusion protein containing the Met kinase domain
T1 sequence (P08581 1078-1345 limits assumed): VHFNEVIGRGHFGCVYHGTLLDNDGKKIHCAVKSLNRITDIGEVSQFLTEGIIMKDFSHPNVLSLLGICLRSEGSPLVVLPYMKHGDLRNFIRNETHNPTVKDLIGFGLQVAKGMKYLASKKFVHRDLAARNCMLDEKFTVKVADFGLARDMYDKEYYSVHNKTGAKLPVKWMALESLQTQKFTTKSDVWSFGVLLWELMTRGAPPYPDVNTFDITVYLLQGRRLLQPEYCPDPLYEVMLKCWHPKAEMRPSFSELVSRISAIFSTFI
Description: Met transphosphorylation assay (ELISA, poly(glu-tyr) substrate).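 Further: Cell-free ELISA with plate-bound poly(Glu:Tyr 4:1) phosphorylated by GST-fused Met kinase domain plus ATP and Mn2+, phosphotyrosine detected by anti-phosphotyrosine antibody with HRP and ABTS read-out.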 Type of assay: biochemical. The note with it: Table 2; read-out: Met IC50.
As for `CC(Oc1cc(-c2ccc(C(=O)N3CCN(C)CC3)cc2)cnc1N)c1c(Cl)ccc(F)c1Cl` (stereo not drawn) [Example I-295, (4-{6-Amino-5-[1-(2,6-dichloro-3-fluoro-phenyl)-ethoxy]-pyridin-3-yl}-phenyl)-(4-methyl-piperazin-1-yl)-methanone], the IC50 amounted to 0.079 µM.

`CC(Oc1cc(-c2cccc(C(=O)N3CCC[C@H]3CN3CCCC3)c2)cnc1N)c1c(Cl)ccc(F)c1Cl` (stereo partly drawn) [Example I-314, (3-{6-Amino-5-[1-(2,6-dichloro-3-fluoro-phenyl)-ethoxy]-pyridin-3-yl}-phenyl)-((S)-2-pyrrolidin-1-ylmethyl-pyrrolidin-1-yl)-methanone]: the IC50 was 0.06 µM.

As to `Nc1ncc(-c2cccc(C(=O)NCCCN3CCCC3)c2)cc1OCc1c(F)ccc(F)c1Cl` [Example I-236, 3-[6-Amino-5-(2-chloro-3,6-difluoro-benzyloxy)-pyridin-3-yl]-N-(3-pyrrolidin-1-yl-propyl)-benzamide], the IC50 worked out at 0.28 µM.

As for `CC(Oc1cc(-c2ccc(C(=O)NCCCN3CCCC3)cc2)cnc1N)c1c(Cl)ccc(F)c1Cl` (stereo not drawn) [Example I-301, 4-{6-Amino-5-[1-(2,6-dichloro-3-fluoro-phenyl)-ethoxy]-pyridin-3-yl}-N-(3-pyrrolidin-1-yl-propyl)-benzamide], the IC50 was found to be 0.064 µM.

For the compound `Nc1ncc(-c2cccc(N3CCCC3)c2)cc1OCc1c(F)ccc(F)c1Cl` [Example I-268, 3-(2-Chloro-3,6-difluoro-benzyloxy)-5-(3-pyrrolidin-1-yl-phenyl)-pyridin-2-ylamine; compound with trifluoro-acetic acid], the IC50 was determined as 4 µM.

Staying with this assay, now noted: plain numbers in column Met IC50 (μM) of Table 2; read-out: Met IC50.
As to `Nc1ncc(-c2cccnc2)cc1OCc1c(Cl)cccc1Cl` [Example I-506, 5-(2,6-Dichloro-benzyloxy)-[3,3′]bipyridinyl-6-ylamine], the IC50 amounted to 2.71 µM.

As to `CC(C)COc1cnc(N)c(OC(C)c2c(F)ccc(F)c2Cl)c1` (stereo not drawn) [Example I-537, 3-[1-(2-Chloro-3,6-difluoro-phenyl)-ethoxy]-5-isobutoxy-pyridin-2-ylamine], the IC50 came to 1.2 µM.

Consider `CC(Oc1cc(-c2cccc(C(=O)NC3CCN(C)CC3)c2)cnc1N)c1c(Cl)cccc1Cl` (stereo not drawn) [Example I-394, 3-{6-Amino-5-[1-(2,6-dichloro-phenyl)-ethoxy]-pyridin-3-yl}-N-(1-methyl-piperidin-4-yl)-benzamide], for which the IC50 was determined as 0.061 µM.

Turning to `Nc1ncc(-c2ccncc2)cc1OCc1c(Cl)cccc1Cl` [Example I-507, 5-(2,6-Dichloro-benzyloxy)-[3,4′]bipyridinyl-6-ylamine], the IC50 is 1.3 µM.

Take `CC(Oc1cc(C#CCNC(=O)N2CCC[C@@H]2CN2CCCC2)cnc1N)c1c(Cl)ccc(F)c1Cl` (stereo partly drawn) [Example I-421]: the IC50 was determined as 0.071 µM.

In the case of `CC(Oc1cc(-c2ccc(NC(=O)N3CC[C@@H](N)C3)cc2)cnc1N)c1c(F)ccc(F)c1Cl` (stereo partly drawn) [Example I-379, (R)-3-Amino-pyrrolidine-1-carboxylic acid (4-{6-amino-5-[1-(2-chloro-3,6-difluoro-phenyl)-ethoxy]-pyridin-3-yl}-phenyl)-amide], the IC50 stood at 0.069 µM.

Consider `CC(Oc1cc(-c2cccc(C(=O)N3CCN(C)CC3)c2)cnc1N)c1c(Cl)cccc1Cl` (stereo not drawn) [Example I-395, (3-{6-amino-5-[1-(2,6-dichloro-phenyl)-ethoxy]-pyridin-3-yl}-phenyl)-(4-methyl-piperazin-1-yl)-methanone], for which the IC50 amounted to 0.058 µM.

The same assay, now with this note: read-out: Met IC50.
For `CC(=O)N1CCN(C(=O)c2ccc(-c3cnc(N)c(OCc4ccccc4Cl)c3)cc2)CC1` [Example I-157, 1-(4-{4-[6-Amino-5-(2-chloro-benzyloxy)-pyridin-3-yl]-benzoyl}-piperazin-1-yl)-ethanone], the half-maximal inhibitory concentration (IC50) came to 3.8 µM.

`Nc1ncc(-c2ccc3[nH]ccc3c2)cc1OCc1c(Cl)cccc1Cl` [Example I-58, 3-(2,6-Dichloro-benzyloxy)-5-(1H-indol-5-yl)-pyridin-2-ylamine]: the IC50 was found to be 4.3 µM.

Regarding `CCN(CC)Cc1c[nH]c2ccc(-c3cnc(N)c(OCc4c(F)ccc(F)c4Cl)n3)cc12` [II-63, 3-(2-Chloro-3,6-difluoro-benzyloxy)-5-(3-diethylaminomethyl-1H-indol-5-yl)-pyrazin-2-ylamine], the IC50 worked out at 0.73 µM.

`Nc1ncc(-c2ccc(O)cc2)cc1OCc1ccccc1C(F)(F)F` [Example I-132, 4-[6-Amino-5-(2-trifluoromethyl-benzyloxy)-pyridin-3-yl]-phenol]: the IC50 stood at 3.67 µM.

For the compound `CC(Oc1nc(-c2cccc(C(=O)NC3CCN(C)CC3)c2)cnc1N)c1c(Cl)cccc1Cl` (stereo not drawn) [II-169, 3-{5-Amino-6-[1-(2,6-dichloro-phenyl)-ethoxy)-pyrazin-2-yl}-N-(1-methyl-piperidin-4-yl)-benzamide], the IC50 was 0.18 µM.

On to `Nc1ncc(-c2ccc(C(=O)NCCN3CCOCC3)cc2)cc1OCc1ccc(Cl)cc1Cl` [Example I-180, 4-[6-Amino-5-(2,4-dichloro-benzyloxy)-pyridin-3-yl]-N-(2-morpholin-4-yl-ethyl)-benzamide], for which the IC50 amounted to 3.8 µM.

Take `Cc1csc(-c2cnc(N)c(OCc3c(Cl)cccc3Cl)c2)c1` [Example I-30, 3-(2,6-Dichloro-benzyloxy)-5-(4-methyl-thiophen-2-yl)-pyridin-2-ylamine]: the IC50 came out at 3.5 µM.

In the case of `Nc1ncc(-c2cccc(F)c2)cc1OCc1c(Cl)cccc1Cl` [Example I-11, 3-(2,6-Dichloro-benzyloxy)-5-(3-fluoro-phenyl)-pyridin-2-ylamine], the IC50 amounted to 13.8 µM.

In the case of `CC(Oc1nc(-c2ccc(C(=O)N3CCC(NC4CC4)CC3)cc2)cnc1N)c1c(Cl)ccc(F)c1Cl` (stereo not drawn) [II-147, (4-{5-Amino-6-[1-(2,6-dichloro-3-fluoro-phenyl)-ethoxy]-pyrazin-2-yl}-phenyl)-(4-cyclopropylamino-piperidin-1-yl)-methanone], the IC50 came out at 0.13 µM.

Consider `Nc1ncc(-c2ccccc2)cc1OCc1ccc(Cl)c(Cl)c1` [Example I-96, 3-(3,4-Dichloro-benzyloxy)-5-phenyl-pyridin-2-ylamine], for which the IC50 stood at 16.2 µM.

For `COc1ccc(COc2cc(-c3ccccc3)cnc2N)cc1F` [Example I-104, 3-(3-Fluoro-4-methoxy-benzyloxy)-5-phenyl-pyridin-2-ylamine], the IC50 came to 15 µM.

Turning to `CCN(CC)CCS(=O)(=O)Nc1cccc(-c2cnc(N)c(OCc3c(F)ccc(F)c3Cl)n2)c1` [II-25, 2-Diethylamino-ethanesulfonic acid {3-[5-amino-6-(2-chloro-3,6-difluoro-benzyloxy)-pyrazin-2-yl]-phenyl}-amide], the IC50 was found to be 3.7 µM.

On to `Nc1ncc(-c2ccc(NS(=O)(=O)CCN3CCC[C@H]3CO)cc2)nc1OCc1c(F)ccc(F)c1Cl` [II-14, 2-[(2S)-2-Hydroxymethyl-pyrrolidin-1-yl]-ethanesulfonic acid {4-[5-amino-6-(2-chloro-3,6-difluoro-benzyloxy)-pyrazin-2-yl]-phenyl}-amide], for which the IC50 was 1.78 µM.

As to `Nc1ncc(-c2ccc(C(=O)N3CCC[C@@H]3CN3CCCC3)cc2)cc1OCc1cccc(F)c1C(F)(F)F` [Example I-116, {4-(6-Amino-5-(3-fluoro-2-trifluoromethyl-benzyloxy)-pyridin-3-yl]-phenyl}-[(2R)-2-pyrrolidin-1-ylmethyl-pyrrolidin-1-yl]-methanone], the IC50 is 0.025 µM.

For `CC(=O)N1CCN(Cc2c[nH]c3ccc(-c4cnc(N)c(OCc5c(F)ccc(F)c5Cl)n4)cc23)CC1` [II-64, 1-(4-{5-[5-Amino-6-(2-chloro-3,6-difluoro-benzyloxy)-pyrazin-2-yl]-1H-indol-3-ylmethyl}-piperazin-1-yl)-ethanone], the IC50 was found to be 1.5 µM.

Take `CC(=O)N1CCN(C(=O)c2ccc(-c3cnc(N)c(OCc4c(F)cccc4Cl)c3)cc2)CC1` [Example I-147, 1-(4-{4-(6-Amino-5-(2-chloro-6-fluoro-benzyloxy)-pyridin-3-yl]-benzoyl}-piperazin-1-yl)-ethanone]: the IC50 was determined as 1.45 µM.

With `Nc1ncc(-c2ccc(C(=O)NCCCN3CCOCC3)cc2)cc1OCc1ccc(Cl)cc1Cl` [Example I-181, 4-[6-Amino-5-(2,4-dichloro-benzyloxy)-pyridin-3-yl]-N-(3-morpholin-4-yl-propyl)-benzamide], the IC50 was found to be 2 µM.

For `Nc1ncc(-c2ccccc2)cc1OCc1c(F)ccc(F)c1Cl` [Example I-95, 3-(2 Chloro-3,6-difluoro-benzyloxy)-5-phenyl-pyridin-2-ylamine], the IC50 was found to be 0.64 µM.

In the case of `CN(C)CCS(=O)(=O)Nc1ccc(-c2cnc(N)c(OCc3c(F)ccc(F)c3Cl)n2)cc1` [II-16, 2-Dimethylamino-ethanesulfonic acid {4-[5-amino-6-(2-chloro-3,6-difluoro-benzyloxy)-pyrazin-2-yl]-phenyl}-amide], the IC50 amounted to 0.91 µM.

Turning to `CC(Oc1nc(-c2ccc(C(=O)N3CCC(N4CCCC4)CC3)cc2)cnc1N)c1c(Cl)cccc1Cl` (stereo not drawn) [II-157, (4-{5-Amino-6-[1-(2,6-dichloro-phenyl)-ethoxy]-pyrazin-2-yl}-phenyl)-(4-pyrrolidin-1-yl-piperidin-1-yl)-methanone], the IC50 was found to be 0.16 µM.

For the compound `Nc1ncc(-c2ccc(OCC(=O)N3CCC[C@@H]3CN3CCCC3)cc2)cc1OCc1c(Cl)cccc1Cl` [Example I-56, 2-{4-[6-Amino-5-(2,6-dichloro-benzyloxy)-pyridin-3-yl]-phenoxy}-1-[(2R)-2-pyrrolidin-1-ylmethyl-pyrrolidin-1-yl]-ethanone], the 50% inhibitory concentration (IC50) stood at 0.53 µM.

On to `Nc1ncc(-c2ccc(O)cc2)nc1OCc1c(Cl)cccc1Cl` [II-1, 4-[5-Amino-6-(2,6-dichloro-benzyloxy)-pyrazin-2-yl]-phenol], for which the IC50 is 1.35 µM.

Take `CC(Oc1nc(-c2ccc(NC(=O)N3CCN(C)CC3)cc2)cnc1N)c1c(Cl)ccc(F)c1Cl` (stereo not drawn) [II-189, 4-Methyl-piperazine-1-carboxylic acid (4-{5-amino-6-[1-(2,6-dichloro-3-fluoro-phenyl)-ethoxy]-pyrazin-2-yl}-phenyl)-amide]: the IC50 was found to be 0.074 µM.

For `CC(=O)N1CCN(CCNC(=O)c2ccc(-c3cnc(N)c(OC(C)c4c(F)ccc(F)c4Cl)n3)cc2)CC1` (stereo not drawn) [II-119, N-[2-(4-Acetyl-piperazin-1-yl)-ethyl]-4-{5-amino-6-[1-(2-chloro-3,6-difluoro-phenyl)-ethoxy]-pyrazin-2-yl}-benzamide], the IC50 was 0.48 µM.
